This is an account of results in publication PMC12603070, “A high-throughput screening approach to discover potential colorectal cancer chemotherapeutics: repurposing drugs to identify novel disruptors of 14-3-3 proteins” (Cell Death & Disease, 2025).

For series [1], the target named is T1, 14-3-3ζ:BAD-112-136F interactions (Homo sapiens, UniProt P63104).
T1 construct: expressed in transfected cells; host or cells: NIH-3T3 fibroblasts, bi-directional pBI-CMV1 plasmid
T1 sequence (P63104 1-245): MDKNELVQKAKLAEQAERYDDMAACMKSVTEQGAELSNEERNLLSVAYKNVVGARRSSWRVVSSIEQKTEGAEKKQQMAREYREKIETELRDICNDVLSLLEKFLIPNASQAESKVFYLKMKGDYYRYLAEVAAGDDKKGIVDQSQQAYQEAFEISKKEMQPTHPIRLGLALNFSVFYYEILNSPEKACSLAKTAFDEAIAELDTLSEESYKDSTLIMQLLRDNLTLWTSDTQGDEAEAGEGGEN
The experiment in a line: BRET sensor screen for disruption of 14-3-3ζ-Rluc8:BAD-112-136F-mCitrine in living NIH-3T3 cells. Format: cell-based, murine. More on the design: inhibition: dose or concentration left out as unconfirmed. Particulars: for inhibition at 20 µM / inhibition: NIH3T3, 3 h; for inhibition: NIH-3T3 cells. The method, boiled down:
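NIH-3T3 cells were transfected with the BRET sensor two days beforehand, then replated on poly-L-ornithine-coated plates and grown 24 h at 37 °C. Medium was then replaced with Krebs buffer (pH 7.4). Z′-score was calculated to judge HTS robustness.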
On the technique in general: Bioluminescence resonance energy transfer reports proximity on the nanometre scale.

The next series has as its system Caco-2 cells. Format: cell-based. The text has this:
(§1) A high-content imaging system (PerkinElmer; Operetta CLS), was used to quantify cell death and apoptosis by calculating the number of propidium iodide-positive cells relative to Hoechst-positive cells, and the number of Annexin V-positive cells relative to Hoechst-positive cells, respectively.

The next series concerns HT-29 cells. The experiment in a line: Hoechst/propidium iodide cell death assay in HT-29. Particulars: for %Cell death HT-29: time not given; for cytotoxicity at 20 µM: Homo sapiens. Format: cell-based, human.
Description: as §1

In series [2] the test system is BAD translocation to mitochondria in Caco-2 and HT-29 cells. Description: Confocal imaging of BAD-mCitrine translocation to mitochondria in CRC cells. The format is cell-based, human. The note with it: 2 µM, 24 h post-treatment. As to the method:
To visualize BAD translocation, 35 mm glass-bottom dishes (ibidi, Gräfelfing, Germany; #81158) were coated with 0.1 mg/mL Poly-D-lysine hydrobromide for 2 h at 37 °C. After coating, dishes were washed twice with sterilized water. Subsequently, cells transfected with BAD-mCitrine were seeded at a density of 20,000 cells per dish and incubated for 24 h to allow for cell attachment. For live-cell imaging, cells were then incubated for 1 h with the mitochondrial membrane potential dye tetramethylrhodamine ethyl ester (TMRE, Invitrogen; #T668) at a final concentration of 100 nM, according to the manufacturer’s instructions. Images were acquired on a Zeiss (Oberkochen, Germany) LSM-900 Airyscan inverted confocal microscope equipped with an environmental incubation system, laser lines including 488 and 561 nm, and an oil immersion 60×/1.40 Plan achromat objective. The signal from the YFP fluorophore (ex. 488 nm, det. 525–542 nm) and the TMRE (ex. 561 nm, det. 600–700 nm) were collected in super-resolution mode. The cell viability dye, DRAQ (BioLegend, California, USA; #424101), was added to the medium at a 1:1000 dilution from the commercial stock and incubated at room temperature for 30 min prior to live-cell imaging. To quantify the colocalization of BAD-mCitrine and the mitochondria labeled with the TMRE, the JACoP plugin in ImageJ was employed. A correlation analysis was performed based on Pearson’s coefficient between pixel-gray values for the two channels.

Series [3] has as its system HT-29 and Caco-2 CRC cells. Description: Cell death in CRC cells, statements covering both HT-29 and Caco-2 (screen at 20 µM, dose-response). The note with it: dose-response 2.5-20 µM in HT-29 and Caco-2. The format is cell-based, human. The procedure:
(§2) Cells were plated at a density of 20,000 cells/well into 96-well plates (PerkinElmer; #6055302) and incubated overnight at 37 °C before the addition of the drugs. One hour prior to imaging, Hoechst 33342 (Invitrogen, #H3570) and propidium iodide (Invitrogen; #P3566) were added to the wells to achieve final concentrations of 50 ng/ml and 0.5 μg/ml, respectively. To measure apoptosis, AlexaFluor 488-conjugated Annexin V (ThermoFisher, Massachusetts, USA; #A13201) was also added at a dilution of 1:400 from the commercial stock. A high-content imaging system (PerkinElmer; Operetta CLS), was used to quantify cell death and apoptosis by calculating the number of propidium iodide-positive cells relative to Hoechst-positive cells, and the number of Annexin V-positive cells relative to Hoechst-positive cells, respectively. To assess caspase-dependent apoptosis, cells were pre-treated for 30 min with the caspase inhibitor Z-VAD-FMK (BD Biosciences, New Jersey, USA; #550377; 20 μM) or the negative control Z-FA-FMK (BD Biosciences; #550411; 20 μM) prior to the incubation of drugs.

For the next series, the system named is HT-29 and Caco-2 cells. The experiment in a line: Annexin V/propidium iodide apoptosis and caspase dependence (Z-VAD-FMK) in HT-29 and Caco-2. The format is cell-based, human. Particulars: for Kinetics of induction of cell death and apoptosis: time courses of PI and Annexin V incorporation, HT-29 and Caco-2, 5 and 10 µM. The procedure: as §2
Setting [4] is: HT-29, 24 h, 20 µM, 24 h, read-out: Percentage of cell death % 24h HT-29.
The mark [5] stands for this setting: HT-29, 48 h, HT-29, 48h, 20 μM, read-out: Percentage of cell death % 48h, HT-29.
The mark [6] stands for this setting: hits from the primary screen, read-out: BRET reduction on NIH-3T3.
Setting [7] is: NIH-3T3 expressing BRET sensor, 20 µM, 3 h, read-out: BRET reduction on NIH-3T3.
Setting [8] is: lomitapide-treated Caco-2 cells, 10 μM, 48 h.

Read-outs that look alike come from different tables or passages of the source.

Regarding `CCCCCCCCc1ccc(CCC(N)(CO)CO)cc1` [Fingolimod (FTY720), Fingolimod], the inhibition at 20 µM in series [1] (read-out: BRET reduction on NIH-3T3, NIH-3T3 cells, hits from the primary screen) is 34.9%; in series [1] (read-out: BRET reduction on NIH-3T3, NIH-3T3 expressing BRET sensor, 20 µM, 3 h), 34.9%. For the same compound, the “Effect on BRET, dose-response” value in series [1] (NIH-3T3 expressing BRET sensor, 3 h post-treatment) is given as “significantly reduced BRET in a dose-dependent manner”. In the series on Caco-2 cells (Caco-2), the “%Cell death Caco-2” value amounted to 67.9%. Moreover, the “%Cell death HT-29” value with HT-29 cells (HT-29) stood at 69.1%. The figures for the cytotoxicity at 20 µM in the series on HT-29 cells (setting [4]) and with HT-29 cells (setting [5]) were 13.5% and 69.1%, respectively.

Regarding `O=C(NC1CCN(CCCCC2(C(=O)NCC(F)(F)F)c3ccccc3-c3ccccc32)CC1)c1ccccc1-c1ccc(C(F)(F)F)cc1` [Lomitapide], the “Mitochondrial translocation of BAD” value in series [2] is listed as “Mitochondrial translocation of BAD was observed”. Also, the inhibition in series [1] (setting [6]) worked out at 40.8%. Besides, the inhibition at 20 µM in series [1] (setting [7]) is 40.8%. Also, in series [3], the “Lowest concentration that significantly induced cell death” value was found to be 5 µM. The “Percentage of cell death % 24h CACO-2” value in the series with Caco-2 cells (20 µM, 24 h) stood at 66.0871%. In addition, the “Percentage of cell death % 48h, Caco-2” value in the series with Caco-2 cells (Caco-2, 48h, 20 μM) was 81.7295%. Moreover, in the series with Caco-2 cells (Caco-2, time not given, text says 48 h), the “%Cell death Caco-2” value amounted to 81.7%. Moreover, the “Effect of Z-VAD-FMK on propidium iodide incorporation” value in the series with Caco-2 cells (setting [8]) is listed as “no effect”. Besides, the “Effect of Z-VAD-FMK on annexin V incorporation” value in the series on HT-29 and Caco-2 cells (setting [8]) is listed as “preventing annexin V incorporation”. Besides, the “%Cell death HT-29” value in the series on HT-29 cells (HT-29) was found to be 72.9%. The cytotoxicity at 20 µM with HT-29 cells (setting [4]) was 29.5%; with HT-29 cells (setting [5]), 72.9%.

Consider `OC1(c2ccc(Cl)c(C(F)(F)F)c2)CCN(CCCC(c2ccc(F)cc2)c2ccc(F)cc2)CC1` [Penfluridol], for which the “Mitochondrial translocation of BAD” value in series [2] is reported as “Mitochondrial translocation of BAD was observed”. Also, the inhibition in series [1] (setting [6]) was 53.8%. The inhibition at 20 µM in series [1] (setting [7]) was determined as 53.8%. The “Lowest concentration that significantly induced cell death” value in series [3] is reported as 5 µM. Besides, the “%Cell death Caco-2” value in the series on Caco-2 cells (Caco-2) amounted to 90.0%. Also, the “Kinetics of induction of cell death and apoptosis” value in the series with HT-29 and Caco-2 cells is recorded as “more rapidly than lomitapide”. In addition, the “%Cell death HT-29” value in the series on HT-29 cells (HT-29) was 92.2%. In addition, the cytotoxicity at 20 µM is 77.5% in the series on HT-29 cells (setting [4]) and 92.2% in the series with HT-29 cells (setting [5]).

Turning to `CC(C)(C)c1ccc(C(O)CCCN2CCC(C(O)(c3ccccc3)c3ccccc3)CC2)cc1` (stereo not shown) [Terfenadine], the “Mitochondrial translocation of BAD” value in series [2] is listed as “Mitochondrial translocation of BAD was observed”. In series [1] (setting [6]), the inhibition turned out to be 45.6%. Further, in series [1] (setting [7]), the inhibition at 20 µM amounted to 45.6%. The “Lowest concentration that significantly induced cell death” value in series [3] worked out at 5 µM. In addition, the “%Cell death Caco-2” value in the series with Caco-2 cells (Caco-2) is 79.7%. Further, the “Kinetics of induction of cell death and apoptosis” value in the series with HT-29 and Caco-2 cells is “more rapidly than lomitapide”. Besides, in the series with HT-29 cells (HT-29), the “%Cell death HT-29” value was 89.6%. The cytotoxicity at 20 µM with HT-29 cells (setting [4]) was determined as 81.9%; in the series on HT-29 cells (setting [5]) it was 89.6%.
